The values below come from patent publication US20160095925A1 (CADILA HEALTHCARE LIMITED, priority 2014, published 2016).

The nature of series [1]: Analytical results of Azacitidine (API), untreated and gamma radiated: description, related substances. Format: physicochemical.
The conditions of series [2]: cited from earlier work.
For series [3] the following is noted: formation of RGU increased in acidic and basic conditions; cited from earlier work.

Molecules are shown by their SMILES. Like-named read-outs stand apart in the source and are kept apart here.

As to `Nc1ncn([C@@H]2O[C@H](CO)[C@@H](O)[C@H]2O)c(=O)n1` [Azacitidine, 4-amino-1-β-D-ribofuranosyl-1,3,5-triazin-2(1H)-one], the Description entry in series [1] (gamma radiated) and in series [1] (untreated) was “White to off” each time. The results for the “Related Substances: Single max. impurity” value in series [1] (gamma radiated) and in series [1] (untreated) were 0.05% and 0.04%, respectively. The “Related Substances: Total impurities” value in series [1] (gamma radiated) is 0.24%; in series [1] (untreated) it was 0.19%. The Solubility entry is reported as “sparingly soluble” in series [2] (5% Tween 80 in water); “sparingly soluble” in series [2] (5% dextrose in water); “sparingly soluble” in series [2] (N-methyl-2-pyrrolidone); “insoluble” in series [2] (acetone); “soluble” in series [2] (dimethylsulfoxide (DMSO)); “slightly soluble” in series [2] (ethanol/water (50/50)). The Solubility result in series [2] (ethanol) is recorded as “insoluble”; in series [2] (methyl ethyl ketone), “insoluble”; in series [2] (normal saline), “sparingly soluble”; in series [2] (polyethylene glycol), “slightly soluble”; in series [2] (propylene glycol) it was “slightly soluble”; in series [2] (water saturated octanol) it was “sparingly soluble”. For the same molecule, the Solubility entry in series [2] (water) was “sparingly soluble”. Moreover, in series [3], the “Optimal pH for stable formulation” value is given as 6-7.
